Results reported in ChEMBL document CHEMBL3612033, “Synthesis of 3,4-diaminobenzoyl derivatives as factor Xa inhibitors” (Eur J Med Chem, 2015).

Assays:
[1] = molecular target: T1, Coagulation factor X (Oryctolagus cuniculus) (UniProt O19045); assay: Inhibition of F10a in rabbit plasma assessed as ratio of compound prothrombin time to vehicle control prothrombin time at 100 nM after 2 mins by automatic coagulation analyser
T1 sequence (whole entry): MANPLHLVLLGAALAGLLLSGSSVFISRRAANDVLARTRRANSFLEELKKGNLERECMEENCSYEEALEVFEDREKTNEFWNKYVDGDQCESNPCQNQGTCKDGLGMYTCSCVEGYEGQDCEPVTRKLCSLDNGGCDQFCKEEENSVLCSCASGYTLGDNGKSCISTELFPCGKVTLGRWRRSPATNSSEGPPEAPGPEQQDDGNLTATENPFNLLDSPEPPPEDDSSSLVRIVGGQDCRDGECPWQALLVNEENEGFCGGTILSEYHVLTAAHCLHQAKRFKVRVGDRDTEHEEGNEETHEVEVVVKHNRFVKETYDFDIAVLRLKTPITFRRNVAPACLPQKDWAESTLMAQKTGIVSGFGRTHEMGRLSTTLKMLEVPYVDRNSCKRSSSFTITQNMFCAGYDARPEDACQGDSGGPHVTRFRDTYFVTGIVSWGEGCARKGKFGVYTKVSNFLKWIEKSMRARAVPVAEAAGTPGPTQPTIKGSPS

Coagulation factor X = Coagulation factor X (Homo sapiens, UniProt P00742); assay: Inhibition of human F10a using S-2765 as substrate preincubated for 10 mins followed by substrate addition by microplate reader analysis
Chain of Coagulation factor X (P00742 41-179 limits assumed): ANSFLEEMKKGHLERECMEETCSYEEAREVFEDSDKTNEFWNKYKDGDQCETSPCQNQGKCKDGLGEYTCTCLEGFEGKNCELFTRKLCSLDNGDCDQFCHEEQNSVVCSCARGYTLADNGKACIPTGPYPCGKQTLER
Chain of Coagulation factor X (P00742 235-488 limits assumed): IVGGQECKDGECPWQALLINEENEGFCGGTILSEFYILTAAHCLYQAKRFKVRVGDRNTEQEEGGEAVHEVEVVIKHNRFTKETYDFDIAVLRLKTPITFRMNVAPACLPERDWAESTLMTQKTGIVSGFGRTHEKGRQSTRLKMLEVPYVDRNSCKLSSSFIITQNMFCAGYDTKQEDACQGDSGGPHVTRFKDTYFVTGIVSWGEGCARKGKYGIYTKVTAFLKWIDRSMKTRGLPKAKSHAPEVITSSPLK

Prothrombin = Prothrombin (Bos taurus, UniProt P00735); assay: Inhibition of bovine plasma thrombin using S-2238 as substrate
Trypsin = Trypsin (Homo sapiens, UniProt P07477+P07478+P35030); assay: Inhibition of trypsin (unknown origin) using S-2222 as substrate; type: protein assay

Ratio [1]	Compound	other results
1.88	NC(=O)c1ccc(NC(=O)c2ccc(-n3ccccc3=O)cc2)c(NC(=O)c2ccc(Cl)cc2)c1	–
1.87	COc1ccc(C(=O)Nc2cc(C(N)=O)ccc2NC(=O)c2ccc(-n3ccccc3=O)cc2)cc1	–
1.72	CC(=O)Nc1ccc(C(=O)Nc2cc(C(N)=O)ccc2NC(=O)c2ccc(-n3ccccc3=O)cc2)cc1	IC50 (Coagulation factor X): 15.6 nM
1.27	NC(=O)c1ccc(NC(=O)c2ccc(-n3ccccc3=O)cc2)c(NC(=O)c2ccc(Cl)nc2)c1	–
1.66	NC(=O)c1ccc(NC(=O)c2ccc(-n3ccccc3=O)cc2)c(NC(=O)c2ccc3ncoc3c2)c1	–
1.94	COc1ccc(C(=O)Nc2cc(C(N)=O)ccc2NC(=O)c2ccc(-n3ccccc3=O)cc2)cc1OC	IC50 (Prothrombin): > 100000 nM; IC50 (Trypsin): > 100000 nM; IC50 (Coagulation factor X): 17.1 nM
1.27	NC(=O)c1ccc(NC(=O)c2ccc(-n3ccccc3=O)cc2)c(NC(=O)c2ccc(F)cc2)c1	–
1.54	NC(=O)c1ccc(NC(=O)c2ccc(-n3ccccc3=O)cc2)c(NC(=O)c2ccc(NC=O)cc2)c1	–

The next lines start with the compound.

Compound	Ratio [1]	other results
CCOC(=O)c1ccc(NC(=O)c2ccc(-n3ccccc3=O)cc2)c(NC(=O)c2cc(OC)c(OC)c(OC)c2)c1	1.21	–
COc1cc(C(=O)Nc2cc(C(N)=O)ccc2NC(=O)c2ccc(N3CCCCC3=O)cc2)cc(OC)c1OC	1.16	–
COc1cc(C(=O)Nc2cc(C(N)=O)ccc2NC(=O)c2ccc(N3CCCC3=O)cc2)cc(OC)c1OC	1.27	–
NC(=O)c1ccc(NC(=O)c2ccc(-n3ccccc3=O)cc2)c(NC(=O)c2ccc(Br)cc2)c1	–	IC50 (Coagulation factor X): 25.9 nM
NC(=O)c1ccc(NC(=O)c2ccc(-n3ccccc3=O)cc2)c(NC(=O)c2ccc(Cl)s2)c1	1.33	–
NC(=O)c1ccc(NC(=O)c2ccc(-n3ccccc3=O)cc2)c(NC(=O)c2ccc(Cl)c(Cl)c2)c1	–	IC50 (Coagulation factor X): 6.5 nM
COc1cc(C(=O)Nc2cc(C(=O)O)ccc2NC(=O)c2ccc(-n3ccccc3=O)cc2)cc(OC)c1OC	1.15	–
COc1cc(C(=O)Nc2ccc(C(N)=O)cc2NC(=O)c2ccc(-n3ccccc3=O)cc2)cc(OC)c1OC	1.07	–
COc1cc(C(=O)Nc2cc(C(N)=O)ccc2NC(=O)c2ccn(-c3ccccc3)c(=O)c2)cc(OC)c1OC	2.1	–
COc1cc(C(=O)Nc2cc(C(N)=O)ccc2NC(=O)c2ccc(-n3ccccc3=O)cc2)cc(OC)c1OC	2.06	IC50 (Coagulation factor X): 28.6 nM
